# Test results taken from PubChem BioAssay (NCI).
#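 The compound was tested at five concentrations on cells cultured in 96-well plates, with a 48-hour exposure period. GI50: concentration for 50% inhibition of growth. TGI is the concentration that stops growth completely.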
# Experiments:
# Test in all cases: NCI tumour cell line growth inhibition, 48 h
# HCC-2998 colon = test system: HCC-2998 colon
# COLO 205 colon = test system: COLO 205 colon
# CCRF-CEM leukemia = test system: CCRF-CEM leukemia
# HOP-62 NSCLC = test system: HOP-62 NSCLC
# U251 CNS = test system: U251 CNS
# NCI/ADR-RES ovarian = test system: NCI/ADR-RES ovarian
# NCI-H522 lung = test system: NCI-H522 lung
# SN12C renal = test system: SN12C renal
# SW-620 colon = test system: SW-620 colon
# UACC-257 melanoma = test system: UACC-257 melanoma
# HOP-92 NSCLC = test system: HOP-92 NSCLC
# HCT-15 colon = test system: HCT-15 colon
# MCF7 breast = test system: MCF7 breast
# SR leukemia = test system: SR leukemia
# UACC-62 melanoma = test system: UACC-62 melanoma
# HL-60(TB) leukemia = test system: HL-60(TB) leukemia
# M14 melanoma = test system: M14 melanoma
# A498 renal = test system: A498 renal
# MDA-MB-231 breast = test system: MDA-MB-231 breast
# A549 NSCLC = test system: A549 NSCLC
# MOLT-4 leukemia = test system: MOLT-4 leukemia
# HCT-116 colon = test system: HCT-116 colon
# LOX IMVI melanoma = test system: LOX IMVI melanoma
# SK-MEL-5 melanoma = test system: SK-MEL-5 melanoma
# K-562 leukemia = test system: K-562 leukemia
# ACHN renal = test system: ACHN renal
# OVCAR-4 ovarian = test system: OVCAR-4 ovarian
# SF-268 CNS = test system: SF-268 CNS
# SF-295 CNS = test system: SF-295 CNS
# MALME-3M melanoma = test system: MALME-3M melanoma
# SNB-75 CNS = test system: SNB-75 CNS
# NCI-H460 lung = test system: NCI-H460 lung
# CAKI-1 renal = test system: CAKI-1 renal
# BT-549 breast = test system: BT-549 breast
# UO-31 renal = test system: UO-31 renal
# SF-539 CNS = test system: SF-539 CNS
# T-47D breast = test system: T-47D breast
# PC-3 prostate = test system: PC-3 prostate
# 786-0 renal = test system: 786-0 renal
# RPMI-8226 leukemia = test system: RPMI-8226 leukemia
# OVCAR-8 ovarian = test system: OVCAR-8 ovarian
# IGROV1 ovarian = test system: IGROV1 ovarian
# HS 578T breast = test system: HS 578T breast
# KM12 colon = test system: KM12 colon
# SNB-19 CNS = test system: SNB-19 CNS
# SK-OV-3 ovarian = test system: SK-OV-3 ovarian
# OVCAR-5 ovarian = test system: OVCAR-5 ovarian
# DU-145 prostate = test system: DU-145 prostate
# TK-10 renal = test system: TK-10 renal
# RXF 393 renal = test system: RXF 393 renal
# NCI-H226 lung = test system: NCI-H226 lung
# HT29 colon = test system: HT29 colon
smiles,measurement,setting,value
CC(=O)Nc1cccc(-n2cnc3cc(-c4ccc(O)cc4)ccc32)c1,GI50,HCC-2998 colon,3.46 µM
same,TGI,HCC-2998 colon,49 µM
same,GI50,COLO 205 colon,3.86 µM
same,TGI,COLO 205 colon,40.1 µM
same,GI50,CCRF-CEM leukemia,0.515 µM
same,TGI,CCRF-CEM leukemia,68.2 µM
same,GI50,HOP-62 NSCLC,0.82 µM
same,TGI,HOP-62 NSCLC,22.5 µM
same,GI50,U251 CNS,0.365 µM
same,TGI,U251 CNS,30.2 µM
same,GI50,NCI/ADR-RES ovarian,0.428 µM
same,TGI,NCI/ADR-RES ovarian,11.5 µM
same,GI50,NCI-H522 lung,0.176 µM
same,TGI,NCI-H522 lung,0.503 µM
same,GI50,SN12C renal,0.546 µM
same,TGI,SN12C renal,41.4 µM
same,GI50,SW-620 colon,0.368 µM
same,TGI,SW-620 colon,36.5 µM
same,GI50,UACC-257 melanoma,0.716 µM
same,TGI,UACC-257 melanoma,45.5 µM
same,GI50,HOP-92 NSCLC,0.94 µM
same,TGI,HOP-92 NSCLC,28.8 µM
same,GI50,HCT-15 colon,0.333 µM
same,TGI,HCT-15 colon,18.9 µM
same,GI50,MCF7 breast,0.377 µM
same,TGI,MCF7 breast,22.6 µM
same,GI50,SR leukemia,0.182 µM
same,TGI,SR leukemia,> 100 µM
same,GI50,UACC-62 melanoma,0.35 µM
same,TGI,UACC-62 melanoma,17.6 µM
same,GI50,HL-60(TB) leukemia,0.313 µM
same,TGI,HL-60(TB) leukemia,10.6 µM
same,GI50,M14 melanoma,0.289 µM
same,TGI,M14 melanoma,77 µM
same,GI50,A498 renal,0.249 µM
same,TGI,A498 renal,0.982 µM
same,GI50,MDA-MB-231 breast,0.46 µM
same,TGI,MDA-MB-231 breast,> 100 µM
same,GI50,A549 NSCLC,0.73 µM
same,TGI,A549 NSCLC,80.9 µM
same,GI50,MOLT-4 leukemia,0.428 µM
same,TGI,MOLT-4 leukemia,16.2 µM
same,GI50,HCT-116 colon,0.413 µM
same,TGI,HCT-116 colon,27.2 µM
same,GI50,LOX IMVI melanoma,0.523 µM
same,TGI,LOX IMVI melanoma,16.3 µM
same,GI50,SK-MEL-5 melanoma,0.316 µM
same,TGI,SK-MEL-5 melanoma,15.8 µM
same,GI50,K-562 leukemia,0.169 µM
same,TGI,K-562 leukemia,> 100 µM
same,GI50,ACHN renal,0.894 µM
same,TGI,ACHN renal,16.8 µM
same,GI50,OVCAR-4 ovarian,2.42 µM
same,TGI,OVCAR-4 ovarian,43.1 µM
same,GI50,SF-268 CNS,0.982 µM
same,TGI,SF-268 CNS,57.8 µM
same,GI50,SF-295 CNS,0.601 µM
same,TGI,SF-295 CNS,11 µM
same,GI50,MALME-3M melanoma,0.583 µM
same,TGI,MALME-3M melanoma,49.8 µM
same,GI50,SNB-75 CNS,0.232 µM
same,TGI,SNB-75 CNS,0.929 µM
same,GI50,NCI-H460 lung,0.386 µM
same,TGI,NCI-H460 lung,14.6 µM
same,GI50,CAKI-1 renal,0.668 µM
same,TGI,CAKI-1 renal,14 µM
same,GI50,BT-549 breast,0.342 µM
same,TGI,BT-549 breast,11.2 µM
same,GI50,UO-31 renal,0.716 µM
same,TGI,UO-31 renal,15 µM
same,GI50,SF-539 CNS,0.371 µM
same,TGI,SF-539 CNS,5.95 µM
same,GI50,T-47D breast,0.534 µM
same,TGI,T-47D breast,19.6 µM
same,GI50,PC-3 prostate,1.43 µM
same,TGI,PC-3 prostate,42.1 µM
same,GI50,786-0 renal,0.78 µM
same,TGI,786-0 renal,23.2 µM
same,GI50,RPMI-8226 leukemia,0.494 µM
same,TGI,RPMI-8226 leukemia,9.23 µM
same,GI50,OVCAR-8 ovarian,0.618 µM
same,TGI,OVCAR-8 ovarian,17 µM
same,GI50,IGROV1 ovarian,0.696 µM
same,TGI,IGROV1 ovarian,29.1 µM
same,GI50,HS 578T breast,0.254 µM
same,TGI,HS 578T breast,2.46 µM
same,GI50,KM12 colon,5.42 µM
same,TGI,KM12 colon,68.2 µM
same,GI50,SNB-19 CNS,0.872 µM
same,TGI,SNB-19 CNS,> 100 µM
same,GI50,SK-OV-3 ovarian,1.16 µM
same,TGI,SK-OV-3 ovarian,22.1 µM
same,GI50,OVCAR-5 ovarian,10.6 µM
same,TGI,OVCAR-5 ovarian,> 100 µM
same,GI50,DU-145 prostate,1.76 µM
same,TGI,DU-145 prostate,23.6 µM
same,GI50,TK-10 renal,5.95 µM
same,TGI,TK-10 renal,47.4 µM
same,GI50,RXF 393 renal,0.834 µM
same,TGI,RXF 393 renal,8.27 µM
same,GI50,NCI-H226 lung,0.779 µM
same,TGI,NCI-H226 lung,4.26 µM
same,GI50,HT29 colon,3.24 µM
same,TGI,HT29 colon,19 µM
